Assay results as given in ChEMBL document CHEMBL3091325, “New aminopyrimidine derivatives as inhibitors of the TAM family” (Eur J Med Chem, 2013).
Active and inactive are the calls of the source. No cut-off for these calls is given here.

What was measured:
[1] = biological target: T1, Tyrosine-protein kinase receptor TYRO3 (Homo sapiens) (UniProt Q06418); experiment: Inhibition of recombinant human Tyro3 kinase domain using poly (Glu, Ala, Tyr) as substrate up to 50 uM after 1.5 hrs by ELISA
T1 sequence (whole entry): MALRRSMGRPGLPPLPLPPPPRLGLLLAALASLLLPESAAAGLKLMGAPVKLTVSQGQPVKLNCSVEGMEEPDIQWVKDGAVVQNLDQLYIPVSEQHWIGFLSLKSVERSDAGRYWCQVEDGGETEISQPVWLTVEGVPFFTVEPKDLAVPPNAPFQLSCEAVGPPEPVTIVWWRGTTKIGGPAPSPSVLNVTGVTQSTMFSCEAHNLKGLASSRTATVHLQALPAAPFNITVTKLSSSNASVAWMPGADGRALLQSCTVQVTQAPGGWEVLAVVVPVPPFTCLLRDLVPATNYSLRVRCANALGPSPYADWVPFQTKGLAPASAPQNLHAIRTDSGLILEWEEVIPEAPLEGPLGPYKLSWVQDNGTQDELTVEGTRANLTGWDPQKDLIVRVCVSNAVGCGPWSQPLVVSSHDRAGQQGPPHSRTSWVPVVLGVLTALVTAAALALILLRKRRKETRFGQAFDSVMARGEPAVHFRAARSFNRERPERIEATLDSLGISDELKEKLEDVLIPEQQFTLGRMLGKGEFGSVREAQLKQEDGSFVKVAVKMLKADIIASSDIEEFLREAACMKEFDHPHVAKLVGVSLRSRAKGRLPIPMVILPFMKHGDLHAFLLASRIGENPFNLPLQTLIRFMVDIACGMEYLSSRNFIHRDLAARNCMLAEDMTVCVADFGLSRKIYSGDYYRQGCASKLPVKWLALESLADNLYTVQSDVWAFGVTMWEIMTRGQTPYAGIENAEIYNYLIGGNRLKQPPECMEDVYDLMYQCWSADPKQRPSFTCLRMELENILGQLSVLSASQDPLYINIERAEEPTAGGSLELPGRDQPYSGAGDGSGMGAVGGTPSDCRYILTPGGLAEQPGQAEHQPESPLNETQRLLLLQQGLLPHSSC

[2] = biological target: Fibroblast growth factor receptor 3 (Homo sapiens) (UniProt P22607); experiment: Inhibition of FGFR3 (unknown origin) at 75 uM relative to control
[3] = biological target: Fibroblast growth factor receptor 3 (Homo sapiens) (UniProt P22607); experiment: Inhibition of FGFR3 (unknown origin) at 1 uM relative to control
[4] = biological target: Fibroblast growth factor receptor 3 (Homo sapiens) (UniProt P22607); experiment: Inhibition of FGFR3 (unknown origin) at 0.5 uM relative to control
[5] = biological target: Tyrosine-protein kinase ABL1 (Homo sapiens) (UniProt P00519); experiment: Inhibition of phosphorylated form of Abl1 (unknown origin) at 75 uM relative to control
[6] = biological target: Tyrosine-protein kinase ABL1 (Homo sapiens) (UniProt P00519); experiment: Inhibition of phosphorylated form of Abl1 (unknown origin) at 1 uM relative to control
[7] = biological target: Tyrosine-protein kinase ABL1 (Homo sapiens) (UniProt P00519); experiment: Inhibition of phosphorylated form of Abl1 (unknown origin) at 0.5 uM relative to control
[8] = biological target: Tyrosine-protein kinase ABL1 (Homo sapiens) (UniProt P00519); experiment: Inhibition of non-phosphorylated form of Abl1 (unknown origin) at 75 uM relative to control
[9] = biological target: Tyrosine-protein kinase ABL1 (Homo sapiens) (UniProt P00519); experiment: Inhibition of non-phosphorylated form of Abl1 (unknown origin) at 1 uM relative to control
[10] = biological target: Tyrosine-protein kinase ABL1 (Homo sapiens) (UniProt P00519); experiment: Inhibition of non-phosphorylated form of Abl1 (unknown origin) at 0.5 uM relative to control
[11] = biological target: Hepatocyte growth factor receptor (Homo sapiens) (UniProt P08581); experiment: Inhibition of Met (unknown origin) at 75 uM relative to control
[12] = biological target: Hepatocyte growth factor receptor (Homo sapiens) (UniProt P08581); experiment: Inhibition of Met (unknown origin) at 1 uM relative to control
[13] = biological target: Hepatocyte growth factor receptor (Homo sapiens) (UniProt P08581); experiment: Inhibition of Met (unknown origin) at 0.5 uM relative to control
[14] = biological target: T2, Tyrosine-protein kinase Mer (Homo sapiens) (UniProt Q12866); experiment: Inhibition of Mer (unknown origin) at 75 uM relative to control
T2 sequence (whole entry): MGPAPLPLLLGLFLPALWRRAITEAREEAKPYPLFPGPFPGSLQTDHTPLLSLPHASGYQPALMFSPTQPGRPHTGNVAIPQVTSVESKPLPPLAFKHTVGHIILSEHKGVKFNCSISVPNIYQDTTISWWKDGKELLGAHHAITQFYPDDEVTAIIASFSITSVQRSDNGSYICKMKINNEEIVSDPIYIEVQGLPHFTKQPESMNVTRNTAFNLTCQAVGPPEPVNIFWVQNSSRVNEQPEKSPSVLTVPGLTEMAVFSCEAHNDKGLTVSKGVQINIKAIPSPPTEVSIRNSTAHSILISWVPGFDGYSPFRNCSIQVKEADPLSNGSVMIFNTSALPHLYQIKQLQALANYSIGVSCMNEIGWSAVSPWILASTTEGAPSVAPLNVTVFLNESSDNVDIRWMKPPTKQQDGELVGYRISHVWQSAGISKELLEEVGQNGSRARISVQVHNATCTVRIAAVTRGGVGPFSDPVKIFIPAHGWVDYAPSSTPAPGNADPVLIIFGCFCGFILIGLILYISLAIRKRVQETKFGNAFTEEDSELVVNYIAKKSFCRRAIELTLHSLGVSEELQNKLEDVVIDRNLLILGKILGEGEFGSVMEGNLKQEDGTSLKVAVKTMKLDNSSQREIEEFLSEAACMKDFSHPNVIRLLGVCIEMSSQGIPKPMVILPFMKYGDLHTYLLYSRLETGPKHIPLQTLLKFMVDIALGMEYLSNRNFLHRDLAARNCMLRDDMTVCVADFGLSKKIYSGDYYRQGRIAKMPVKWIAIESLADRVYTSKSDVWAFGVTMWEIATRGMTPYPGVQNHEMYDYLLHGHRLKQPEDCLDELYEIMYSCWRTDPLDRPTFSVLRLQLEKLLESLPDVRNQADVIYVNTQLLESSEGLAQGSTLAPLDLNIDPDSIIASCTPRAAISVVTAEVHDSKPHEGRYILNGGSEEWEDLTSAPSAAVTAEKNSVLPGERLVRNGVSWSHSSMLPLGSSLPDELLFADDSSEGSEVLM

[15] = biological target: T2, Tyrosine-protein kinase Mer (Homo sapiens); experiment: Inhibition of Mer (unknown origin) at 1 uM relative to control
[16] = biological target: T2, Tyrosine-protein kinase Mer (Homo sapiens); experiment: Inhibition of Mer (unknown origin) at 0.5 uM relative to control
[17] = biological target: Tyrosine-protein kinase receptor UFO (Homo sapiens) (UniProt P30530); experiment: Inhibition of Axl (unknown origin) at 75 uM relative to control
[18] = biological target: Tyrosine-protein kinase receptor UFO (Homo sapiens) (UniProt P30530); experiment: Inhibition of Axl (unknown origin) at 1 uM relative to control
[19] = biological target: Tyrosine-protein kinase receptor UFO (Homo sapiens) (UniProt P30530); experiment: Inhibition of Axl (unknown origin) at 0.5 uM relative to control
[20] = biological target: T1, Tyrosine-protein kinase receptor TYRO3 (Homo sapiens); experiment: Inhibition of recombinant human Tyro3 kinase domain using poly (Glu, Ala, Tyr) as substrate at 75 uM after 1.5 hrs by ELISA relative to control
[21] = biological target: T1, Tyrosine-protein kinase receptor TYRO3 (Homo sapiens); experiment: Inhibition of recombinant human Tyro3 kinase domain using poly (Glu, Ala, Tyr) as substrate at 1 uM after 1.5 hrs by ELISA relative to control
[22] = biological target: T1, Tyrosine-protein kinase receptor TYRO3 (Homo sapiens); experiment: Inhibition of recombinant human Tyro3 kinase domain using poly (Glu, Ala, Tyr) as substrate at 0.5 uM after 1.5 hrs by ELISA relative to control

Chain of Fibroblast growth factor receptor 3 (Homo sapiens) (P22607 23-806 limits assumed): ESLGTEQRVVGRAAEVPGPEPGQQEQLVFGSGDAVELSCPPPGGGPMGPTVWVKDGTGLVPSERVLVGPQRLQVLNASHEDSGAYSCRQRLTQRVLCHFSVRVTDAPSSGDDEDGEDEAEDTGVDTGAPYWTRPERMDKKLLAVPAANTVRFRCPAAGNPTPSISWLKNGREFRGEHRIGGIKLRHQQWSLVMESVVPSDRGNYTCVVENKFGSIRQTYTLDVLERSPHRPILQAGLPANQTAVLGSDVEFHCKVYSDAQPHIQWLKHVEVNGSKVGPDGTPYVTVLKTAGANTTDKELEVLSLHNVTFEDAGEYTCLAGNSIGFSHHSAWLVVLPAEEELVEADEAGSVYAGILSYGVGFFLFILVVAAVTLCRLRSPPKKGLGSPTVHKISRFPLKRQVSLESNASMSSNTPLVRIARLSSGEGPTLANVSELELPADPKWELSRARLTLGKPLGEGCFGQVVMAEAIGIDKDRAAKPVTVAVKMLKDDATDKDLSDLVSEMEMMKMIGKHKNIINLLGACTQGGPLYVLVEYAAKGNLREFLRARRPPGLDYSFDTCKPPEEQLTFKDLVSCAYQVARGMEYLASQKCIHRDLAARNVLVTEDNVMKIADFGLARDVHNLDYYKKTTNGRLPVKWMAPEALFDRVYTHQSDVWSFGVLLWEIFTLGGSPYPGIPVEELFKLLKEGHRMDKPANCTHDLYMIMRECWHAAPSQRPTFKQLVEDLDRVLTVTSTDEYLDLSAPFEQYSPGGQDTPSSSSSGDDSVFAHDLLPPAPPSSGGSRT
Chain of Tyrosine-protein kinase ABL1 (Homo sapiens) (P00519 whole entry): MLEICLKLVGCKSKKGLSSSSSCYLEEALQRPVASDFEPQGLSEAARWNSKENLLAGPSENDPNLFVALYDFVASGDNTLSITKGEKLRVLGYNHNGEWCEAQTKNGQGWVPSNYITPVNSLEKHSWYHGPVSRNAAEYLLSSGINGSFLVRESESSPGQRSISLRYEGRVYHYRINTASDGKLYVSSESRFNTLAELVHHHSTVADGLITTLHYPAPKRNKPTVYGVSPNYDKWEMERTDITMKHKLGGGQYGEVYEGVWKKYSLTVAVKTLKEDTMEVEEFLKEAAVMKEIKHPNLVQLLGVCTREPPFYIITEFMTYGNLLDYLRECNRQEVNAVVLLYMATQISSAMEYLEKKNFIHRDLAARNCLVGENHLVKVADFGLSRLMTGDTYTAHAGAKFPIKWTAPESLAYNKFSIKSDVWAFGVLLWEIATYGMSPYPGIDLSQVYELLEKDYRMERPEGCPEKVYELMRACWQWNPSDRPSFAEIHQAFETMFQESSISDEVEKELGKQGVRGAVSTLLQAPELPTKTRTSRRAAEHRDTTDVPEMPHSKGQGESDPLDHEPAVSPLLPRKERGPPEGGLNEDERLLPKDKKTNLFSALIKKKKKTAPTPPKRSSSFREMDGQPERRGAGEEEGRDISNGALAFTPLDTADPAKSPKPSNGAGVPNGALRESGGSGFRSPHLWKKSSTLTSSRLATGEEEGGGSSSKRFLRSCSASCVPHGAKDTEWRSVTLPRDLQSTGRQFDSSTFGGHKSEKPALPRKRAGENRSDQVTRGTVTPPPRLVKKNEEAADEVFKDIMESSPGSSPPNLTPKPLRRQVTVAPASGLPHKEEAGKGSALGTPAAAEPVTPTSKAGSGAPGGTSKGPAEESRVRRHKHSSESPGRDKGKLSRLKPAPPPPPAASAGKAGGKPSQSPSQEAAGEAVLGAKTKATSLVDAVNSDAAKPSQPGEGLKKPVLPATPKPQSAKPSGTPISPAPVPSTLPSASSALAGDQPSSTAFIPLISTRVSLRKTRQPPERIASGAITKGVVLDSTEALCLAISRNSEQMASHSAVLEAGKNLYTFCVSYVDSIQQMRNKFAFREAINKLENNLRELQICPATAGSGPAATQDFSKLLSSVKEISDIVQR
Chain of Tyrosine-protein kinase receptor UFO (Homo sapiens) (P30530 whole entry, the tested form may be a part): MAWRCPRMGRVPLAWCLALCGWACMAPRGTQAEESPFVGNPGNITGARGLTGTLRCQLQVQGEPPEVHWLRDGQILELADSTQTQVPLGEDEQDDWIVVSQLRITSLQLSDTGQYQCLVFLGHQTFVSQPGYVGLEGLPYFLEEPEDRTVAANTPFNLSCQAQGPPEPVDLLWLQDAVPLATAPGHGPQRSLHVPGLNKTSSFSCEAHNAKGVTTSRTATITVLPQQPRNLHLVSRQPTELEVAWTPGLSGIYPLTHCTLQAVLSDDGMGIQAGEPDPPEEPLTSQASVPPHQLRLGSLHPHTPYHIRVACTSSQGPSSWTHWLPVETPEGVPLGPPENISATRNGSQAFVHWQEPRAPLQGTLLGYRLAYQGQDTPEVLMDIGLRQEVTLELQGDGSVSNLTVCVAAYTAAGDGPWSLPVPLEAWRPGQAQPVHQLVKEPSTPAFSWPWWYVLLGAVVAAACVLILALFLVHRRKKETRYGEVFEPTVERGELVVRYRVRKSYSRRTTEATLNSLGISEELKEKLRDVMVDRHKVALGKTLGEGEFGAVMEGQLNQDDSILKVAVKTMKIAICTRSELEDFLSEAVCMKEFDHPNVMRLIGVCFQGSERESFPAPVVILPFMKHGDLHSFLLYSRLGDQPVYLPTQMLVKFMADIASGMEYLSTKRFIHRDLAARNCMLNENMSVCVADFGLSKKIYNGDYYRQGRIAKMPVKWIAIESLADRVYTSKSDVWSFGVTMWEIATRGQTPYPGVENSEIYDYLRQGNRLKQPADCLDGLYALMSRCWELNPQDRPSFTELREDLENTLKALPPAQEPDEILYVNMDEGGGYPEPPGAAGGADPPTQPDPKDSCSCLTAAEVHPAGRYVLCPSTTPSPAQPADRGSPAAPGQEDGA
Chain of Hepatocyte growth factor receptor (Homo sapiens) (P08581 whole entry): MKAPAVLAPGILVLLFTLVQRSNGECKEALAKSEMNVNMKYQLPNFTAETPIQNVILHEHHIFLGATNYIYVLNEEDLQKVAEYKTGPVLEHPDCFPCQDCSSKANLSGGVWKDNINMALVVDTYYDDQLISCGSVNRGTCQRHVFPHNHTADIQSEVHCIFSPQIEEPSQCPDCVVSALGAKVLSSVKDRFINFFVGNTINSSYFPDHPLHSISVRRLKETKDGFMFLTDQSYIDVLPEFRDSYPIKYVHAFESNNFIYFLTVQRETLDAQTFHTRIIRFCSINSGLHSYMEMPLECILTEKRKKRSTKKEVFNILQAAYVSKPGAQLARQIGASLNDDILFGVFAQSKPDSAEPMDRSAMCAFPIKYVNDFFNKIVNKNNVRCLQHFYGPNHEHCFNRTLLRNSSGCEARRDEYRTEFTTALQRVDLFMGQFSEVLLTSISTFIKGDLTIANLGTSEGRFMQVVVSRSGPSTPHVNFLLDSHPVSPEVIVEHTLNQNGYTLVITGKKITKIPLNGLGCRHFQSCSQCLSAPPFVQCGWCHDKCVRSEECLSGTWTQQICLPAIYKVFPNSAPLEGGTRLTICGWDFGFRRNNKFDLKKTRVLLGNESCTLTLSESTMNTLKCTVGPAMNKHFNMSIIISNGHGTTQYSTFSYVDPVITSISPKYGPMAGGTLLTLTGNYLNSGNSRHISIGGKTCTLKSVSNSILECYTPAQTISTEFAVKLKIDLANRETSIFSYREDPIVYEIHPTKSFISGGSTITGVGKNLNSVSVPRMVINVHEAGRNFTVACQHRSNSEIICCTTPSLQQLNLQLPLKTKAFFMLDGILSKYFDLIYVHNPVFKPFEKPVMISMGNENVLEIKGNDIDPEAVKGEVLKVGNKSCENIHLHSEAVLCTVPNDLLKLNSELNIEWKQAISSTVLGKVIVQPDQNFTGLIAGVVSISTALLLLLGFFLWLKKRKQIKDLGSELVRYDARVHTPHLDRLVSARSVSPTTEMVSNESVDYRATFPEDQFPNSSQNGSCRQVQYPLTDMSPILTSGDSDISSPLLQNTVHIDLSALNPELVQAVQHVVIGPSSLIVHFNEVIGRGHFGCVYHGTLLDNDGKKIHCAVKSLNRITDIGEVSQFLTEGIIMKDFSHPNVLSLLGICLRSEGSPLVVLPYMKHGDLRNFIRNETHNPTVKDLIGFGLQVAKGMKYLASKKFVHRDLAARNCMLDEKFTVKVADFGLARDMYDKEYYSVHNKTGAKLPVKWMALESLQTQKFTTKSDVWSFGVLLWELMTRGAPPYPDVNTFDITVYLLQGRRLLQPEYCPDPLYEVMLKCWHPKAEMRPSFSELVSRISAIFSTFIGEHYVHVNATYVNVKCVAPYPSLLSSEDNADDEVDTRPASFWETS

inhibition [1] | inhibition [2] [%] | inhibition [3] [%] | inhibition [4] [%] | inhibition [6] [%] | inhibition [8] [%] | inhibition [9] [%] | inhibition [12] [%] | inhibition [15] [%] | inhibition [16] [%] | inhibition [17] [%] | inhibition [18] [%] | inhibition [19] [%] | inhibition [21] [%] | inhibition [22] [%] | Structure (SMILES) | other results
inactive |  |  |  |  |  |  |  |  |  |  |  |  |  |  | Cc1cc(F)ccc1-n1cccc(C(=O)Nc2ccc(Oc3cc(On4nnc5ccccc54)ncn3)c(F)c2)c1=O | 
 | 9 | 0 | 0 | 4 | 85 | 37 | 97 | 71 | 50 | 100 | 93 | 74 | 63 | 27 | Nc1cc(Oc2ccc(NC(=O)c3cccn(-c4ccc(F)cc4F)c3=O)cc2F)ncn1 | inhibition [5]: 21%; inhibition [7]: 8%; inhibition [10]: 25%; inhibition [11]: 99%; inhibition [13]: 91%; inhibition [14]: 87%; inhibition [20]: 100%
inactive |  |  |  |  |  |  |  |  |  |  |  |  |  |  | COc1ccc(CNc2cc(Oc3ccc(NC(=O)c4cccn(-c5ccc(F)cc5)c4=O)cc3F)ncn2)cc1 | 
inactive |  |  |  |  |  |  |  |  |  |  |  |  |  |  | O=C(Nc1ccc(Oc2cc(On3nnc4ccccc43)ncn2)c(F)c1)c1cccn(-c2ccc(F)cc2F)c1=O | 
 | 6 | 0 | 0 | 0 | 98 | 27 | 100 | 65 | 53 | 100 | 98 | 93 | 65 | 48 | Cc1cc(F)ccc1-n1cccc(C(=O)Nc2ccc(Oc3cc(N)ncn3)c(F)c2)c1=O | inhibition [5]: 47%; inhibition [7]: 0%; inhibition [10]: 10%; inhibition [11]: 99%; inhibition [13]: 99%; inhibition [14]: 99%; inhibition [20]: 100%
 | 12 | 0 | 0 | 0 | 32 | 50 | 100 | 95 | 94 | 100 | 100 | 96 | 75 | 61 | Nc1nccc(Oc2ccc(NC(=O)c3cccn(-c4ccc(F)cc4)c3=O)cc2F)n1 | inhibition [5]: 30%; inhibition [7]: 0%; inhibition [10]: 27%; inhibition [11]: 99%; inhibition [13]: 99%
inactive |  |  |  |  |  |  |  |  |  |  |  |  |  |  | COc1ccc(-n2cccc(C(=O)Nc3ccc(Oc4cc(N)ncn4)c(F)c3)c2=O)c(F)c1 | 
inactive |  |  |  |  |  |  |  |  |  |  |  |  |  |  | CNc1cc(Oc2ccc(NC(=O)c3cccn(-c4ccc(F)cc4)c3=O)cc2F)ncn1 | 
inactive |  |  |  |  |  |  |  |  |  |  |  |  |  |  | O=C(Nc1ccc(Oc2cc(On3nnc4ccccc43)ncn2)c(F)c1)c1cccn(-c2ccc(F)cc2)c1=O | 
inactive |  |  |  |  |  |  |  |  |  |  |  |  |  |  | Nc1cc(Oc2ccc(NC(=O)c3cccn(-c4ccc(F)c(F)c4)c3=O)cc2F)ncn1 | 
inactive |  |  |  |  |  |  |  |  |  |  |  |  |  |  | COc1ccc(-n2cccc(C(=O)Nc3ccc(Oc4cc(On5nnc6ccccc65)ncn4)c(F)c3)c2=O)c(F)c1 | 
 | 0 | 0 | 0 | 0 | 71 | 12 | 99 | 93 | 90 | 100 | 99 | 95 | 63 | 50 | O=C(Nc1ccc(Oc2cc(NCCN3CCOCC3)ncn2)c(F)c1)c1cccn(-c2ccc(F)cc2)c1=O | inhibition [5]: 13%; inhibition [7]: 1%; inhibition [10]: 12%; inhibition [11]: 99%; inhibition [13]: 98%; inhibition [14]: 49%; inhibition [20]: 75%
inactive |  |  |  |  |  |  |  |  |  |  |  |  |  |  | COc1ccc(CNc2nccc(Oc3ccc(NC(=O)c4cccn(-c5ccc(F)cc5)c4=O)cc3F)n2)cc1 | 
 | 0 | 0 | 0 | 35 | 100 | 98 | 95 | 98 | 98 | 99 | 99 | 99 | 99 | 96 | CCOc1ccn(-c2ccc(F)cc2)c(=O)c1C(=O)Nc1ccc(Oc2ccnc(N)c2Cl)c(F)c1 | inhibition [14]: 95%; inhibition [20]: 92%
inactive |  |  |  |  |  |  |  |  |  |  |  |  |  |  | O=C(Nc1ccc(Oc2cc(On3nnc4ccccc43)ncn2)c(F)c1)c1cccn(-c2ccc(F)c(F)c2)c1=O | 
inactive |  |  |  |  |  |  |  |  |  |  |  |  |  |  | O=C(Nc1ccc(Oc2cc(Cl)ncn2)c(F)c1)c1cccn(-c2ccc(F)cc2)c1=O | 
 | 16 | 0 | 0 | 0 | 66 | 32 | 98 | 93 | 77 | 98 | 100 | 98 | 94 | 73 | O=C(Nc1ccc(Oc2ncnc3[nH]cnc23)c(F)c1)c1cccn(-c2ccc(F)cc2)c1=O | inhibition [5]: 20%; inhibition [7]: 0%; inhibition [10]: 17%; inhibition [11]: 95%; inhibition [13]: 93%; inhibition [20]: 100%
inactive |  |  |  |  |  |  |  |  |  |  |  |  |  |  | CNc1nccc(Oc2ccc(NC(=O)c3cccn(-c4ccc(F)cc4)c3=O)cc2F)n1 | 
